Where two headings read alike, the source gives them in different places.
Experiments:
Format in all cases: biochemical
[1] = target: PRK2 (Homo sapiens, UniProt Q16513); test: PRK2 33P kinase assay; conditions: read-out: PRK2 activity as percentage of control without inhibitor
Method: (§1) All assays (25.5 μl) were carried out at room temperature (21° C.) and were linear with respect to time and enzyme concentrations under the conditions used. Assays were performed for 30 minutes except assays for LCK and PKB which were performed for 15 minutes using Multidrop Micro reagent dispensers (Thermo Electron Corporation, Waltham, Mass. 02454, USA) in a 96-well format. The concentration of […] [γ-^33P] ATP (800 cpm/pmol) in the assays was one of three concentrations (5, 20 or 50 μM) in order to be at or below Km for ATP for the enzyme. Assays were initiated with MgATP and stopped by addition of 5 μl of 0.5M orthophosphoric acid. Assays were then harvested onto P81 filterplates using a unifilter harvester (PerkinElmer, Boston, Mass. 02118, USA), with a wash buffer of 50 mM orthophosphoric acid. Filterplates were then air dried overnight. 10 μl of Microscint O was added per well prior to counting for radioactivity.
(§2) MKK1, JNK/SAPK1c, SAPK2a/p38, SAPK2b/p38β2, SAPK3/p38γ, SAPK4/p38δ, MAPK2/ERK2, MAPKAP-K1β, MAPKAP-K2, MSK1, PRAK, PKA, PKCα, PDK1, SGK, p70S6K, GSK3β, ROCK-II, PRK2, AMPK, CHK1, CHK2, CK2, PHK, LCK, were assayed according to Davies et al., (Davies, S. P., Reddy, H., Caivano, M. and Cohen, P. Biochem. J. 351, 95-105, 2000.
(§3) CSK and CDK2/cyclinA, were assayed according to Bain et al. (Bain J, McLauchlan H, Elliott M, Cohen P. Biochem J. 371, 199-204, 2003., except that ATP concentrations were either 5, 20 or 50 micromolar so that they were at or below the Km for ATP. The ATP concentrations used were as follows, 5 μM for assays of MKK1, SAPK3, SAPK4, GSK3β, PRK2 CK2 20 μm for assays of JNK, SAPK2β, MAPKAP-K2, MSK1, PRAK, PKA, […], PDK1, SGK, p70S6K, ROCK-II, CHK1, CHK2, CSK, CDK2, and 50 μM for assays of SAPK2a, MAPK2/ERK2, AMPK, LCK, PHK and MAPKAP-K1β.
The following kinases were assayed against the substrates indicated. Aurora B was assayed against the substrate peptide […] (300 μM), ERK8 and MST-2 were both assayed against MBP (0.33 mg/ml). IKKβ was assayed against the substrate peptide […] (300 μM), JNK3 was assayed against 3 μM ATF2[19-96]. MAPKAP-K3 and PKD1 were both assayed against […] (30 μM), MARK3 was assayed against CHKtide ([…]) substrate peptide (300 μM). MNK1 and MNK2 were both assayed against eIF4E protein (0.5 mg/ml). NEK7 was assayed against […] (300 μM), PIM2 was assayed against […] (300 μM), ΔPH PKBβ-S474D was assayed against Crosstide (30 μM), PLK1 was assayed against […] (300 μM). PRK2 was assayed against Long S6 peptide, […] (30 μM), RSK2 was assayed against […] (30 μM), SRC was assayed against cdc2 peptide, […], (300 μM) and SRPK1 was assayed against peptide […] (300 μM). All enzymes were diluted in 50 mM Tris/HCl pH 7.5, 0.1 mM EGTA, 1 mg/ml BSA, 0.1% β-mercaptoethanol buffer and assayed in an incubation containing 50 mM Tris/HCl pH7.5, 0.1 mM EGTA, 0.1% β-mercaptoethanol, CAMK-1 (5-20 mU) diluted in 50 mM Tris/HCl pH 7.5, 0.1 mM EGTA, 1 mg/ml BSA, 0.1% β-mercaptoethanol is assayed against substrate peptide […] in an incubation containing 50 mM Tris/HCl pH 7.5, 0.1 mM EGTA, 0.5 mM CaCl2, 0.3 μM calmodulin, 0.1% β-mereaptoethanol, 300 μM substrate peptide, 10 mM magnesium acetate and 0.05 mM [^33P-γ-ATP] (500-1000 cpm/pmole). EF2K (5-20 mU) diluted in 50 mM Hepes pH 6.6, 0.1% β-mercaptoethanol, 1 mg/ml BSA is assayed against a substrate peptide […] in an incubation containing 50 mM Hepes pH 6.6, 0.2 mM CaCl2, 0.3 μM Calmodulin, 0.05% b-mercaptoethanol, 300 μM substrate peptide, 10 mM magnesium acetate and 0.05 mM [^33P-γ-ATP] (500-1000 cpm/pmole).

[2] = target: T1, PRAK (Homo sapiens, UniProt Q8IW41); test: PRAK 33P kinase assay; conditions: read-out: PRAK activity as percentage of control without inhibitor; for remaining activity at 1 µM: inhibitor 1 μM; for remaining activity at 10 µM: inhibitor 10 μM
T1 sequence (Q8IW41 1-473): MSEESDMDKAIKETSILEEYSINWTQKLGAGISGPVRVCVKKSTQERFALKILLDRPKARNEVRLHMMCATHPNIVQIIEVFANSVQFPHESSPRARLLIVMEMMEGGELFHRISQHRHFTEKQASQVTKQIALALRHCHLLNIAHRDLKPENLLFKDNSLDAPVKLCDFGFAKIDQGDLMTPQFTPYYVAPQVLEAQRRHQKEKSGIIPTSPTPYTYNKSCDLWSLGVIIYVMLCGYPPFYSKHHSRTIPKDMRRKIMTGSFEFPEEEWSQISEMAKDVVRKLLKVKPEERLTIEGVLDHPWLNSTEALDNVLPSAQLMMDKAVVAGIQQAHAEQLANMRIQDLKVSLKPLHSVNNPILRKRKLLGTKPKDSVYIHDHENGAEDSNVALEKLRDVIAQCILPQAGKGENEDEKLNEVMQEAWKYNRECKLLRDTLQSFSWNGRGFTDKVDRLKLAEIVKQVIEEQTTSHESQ
Method: as §1, §2, §3

[3] = target: Lck (Homo sapiens, UniProt P06239); test: Lck 33P kinase assay; conditions: read-out: Lck activity as percentage of control without inhibitor; for remaining activity at 1 µM: inhibitor 1 μM
Method: as §1, with “Assays” for “All assays (25.5 μl) were carried out at room temperature (21° C.) and were linear with respect to time and enzyme concentrations under the conditions used. Assays”
as §2, §3

Sequence of Lck (P06239 whole entry, species assumed): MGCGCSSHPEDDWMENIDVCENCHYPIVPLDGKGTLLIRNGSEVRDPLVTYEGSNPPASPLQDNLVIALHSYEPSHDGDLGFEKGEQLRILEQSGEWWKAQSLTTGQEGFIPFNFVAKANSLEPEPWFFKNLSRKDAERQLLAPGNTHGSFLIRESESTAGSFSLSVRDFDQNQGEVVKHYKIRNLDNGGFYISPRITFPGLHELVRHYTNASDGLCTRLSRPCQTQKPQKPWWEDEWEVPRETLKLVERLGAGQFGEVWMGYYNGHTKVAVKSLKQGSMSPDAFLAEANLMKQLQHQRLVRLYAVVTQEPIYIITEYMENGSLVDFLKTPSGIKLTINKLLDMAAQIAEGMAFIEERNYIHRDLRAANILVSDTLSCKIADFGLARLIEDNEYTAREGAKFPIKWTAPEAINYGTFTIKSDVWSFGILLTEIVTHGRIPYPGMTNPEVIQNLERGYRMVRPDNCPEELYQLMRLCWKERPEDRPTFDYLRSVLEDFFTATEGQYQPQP
Sequence of PRK2 (Q16513 whole entry, species assumed): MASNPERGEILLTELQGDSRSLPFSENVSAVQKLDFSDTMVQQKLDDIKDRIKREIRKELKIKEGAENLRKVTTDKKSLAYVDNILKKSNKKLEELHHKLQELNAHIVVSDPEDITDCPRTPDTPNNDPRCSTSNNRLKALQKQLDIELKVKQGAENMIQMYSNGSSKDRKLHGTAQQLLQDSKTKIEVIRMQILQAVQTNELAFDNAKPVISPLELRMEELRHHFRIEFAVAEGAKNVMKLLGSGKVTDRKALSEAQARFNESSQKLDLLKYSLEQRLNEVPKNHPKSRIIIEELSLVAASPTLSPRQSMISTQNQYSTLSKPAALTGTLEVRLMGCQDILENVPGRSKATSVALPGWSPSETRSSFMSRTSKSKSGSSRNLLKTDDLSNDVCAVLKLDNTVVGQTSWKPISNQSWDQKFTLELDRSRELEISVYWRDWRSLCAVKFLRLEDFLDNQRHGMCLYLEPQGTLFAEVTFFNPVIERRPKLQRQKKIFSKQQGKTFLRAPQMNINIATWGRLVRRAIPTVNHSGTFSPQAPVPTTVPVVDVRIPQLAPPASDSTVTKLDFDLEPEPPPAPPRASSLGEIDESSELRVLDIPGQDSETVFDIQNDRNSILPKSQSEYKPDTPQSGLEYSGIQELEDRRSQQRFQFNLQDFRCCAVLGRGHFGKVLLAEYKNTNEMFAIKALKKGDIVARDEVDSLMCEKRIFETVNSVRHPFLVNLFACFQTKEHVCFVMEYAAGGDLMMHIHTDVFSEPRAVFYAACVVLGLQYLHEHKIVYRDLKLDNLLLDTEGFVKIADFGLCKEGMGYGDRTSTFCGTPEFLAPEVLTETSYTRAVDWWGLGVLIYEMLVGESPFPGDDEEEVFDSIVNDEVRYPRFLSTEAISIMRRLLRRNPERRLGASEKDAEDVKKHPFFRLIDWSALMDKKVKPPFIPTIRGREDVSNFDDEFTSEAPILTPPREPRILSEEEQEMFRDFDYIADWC

SMILES	remaining activity at 1 µM ([1]; inhibitor 1 μM) [%]	remaining activity at 10 µM ([1]; inhibitor 10 μM) [%]	remaining activity at 1 µM [2] [%]	remaining activity at 10 µM [2] [%]	remaining activity at 1 µM [3] [%]	remaining activity at 10 µM ([3]; inhibitor 10 μM) [%]	remaining activity at 1 µM [1] [%]	remaining activity at 10 µM [1] [%]	remaining activity at 10 µM [3] [%]
COc1ccc2c3c([nH]c2c1)C(C)=NCC3 [Harmaline]	97	83	88	93	77	87			
COc1ccc2c(c1)[nH]c1c(C)nccc12 [Harmine]			81	75			82	45	91
CC1=NCCc2c1[nH]c1cc(O)ccc21 [Harmalol]	86	54	84	78	85	68			

From US20100063085A1, “METHOD OF TREATING LEARNING IMPAIRMENT IN DOWN'S SYNDROME SUBJECTS” (University Court of The University of Dundee, priority 2008, published 2010)
